# Assay results as given in patent US20220016102A1, “ER PROTEIN REGULATORS AND USE THEREOF” (ShanghaiTech University, priority 2018, published 2022).
# Target: T1, ER protein (Homo sapiens, UniProt P03372)
# T1 sequence (P03372 1-595): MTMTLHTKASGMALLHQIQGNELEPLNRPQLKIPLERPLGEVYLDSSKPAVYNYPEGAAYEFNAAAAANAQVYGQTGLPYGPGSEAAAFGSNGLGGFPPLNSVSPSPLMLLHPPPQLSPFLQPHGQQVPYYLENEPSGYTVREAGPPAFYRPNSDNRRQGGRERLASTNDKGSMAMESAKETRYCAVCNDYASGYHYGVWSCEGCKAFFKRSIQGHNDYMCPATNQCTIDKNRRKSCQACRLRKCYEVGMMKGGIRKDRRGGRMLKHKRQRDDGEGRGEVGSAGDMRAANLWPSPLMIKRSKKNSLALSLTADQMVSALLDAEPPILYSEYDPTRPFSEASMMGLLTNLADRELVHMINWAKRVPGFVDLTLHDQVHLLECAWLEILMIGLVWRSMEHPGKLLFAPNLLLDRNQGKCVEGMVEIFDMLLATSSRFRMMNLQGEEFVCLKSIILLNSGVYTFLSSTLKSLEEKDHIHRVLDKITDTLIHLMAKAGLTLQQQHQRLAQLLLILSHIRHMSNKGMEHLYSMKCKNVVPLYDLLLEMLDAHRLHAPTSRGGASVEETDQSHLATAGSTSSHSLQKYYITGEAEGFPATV
# Test: Western blotting analysis of ER protein degradation in T47D cell line
# Type: cell-based
# Design: western blotting detection of the level of intracellular ER protein; endogenous in cells; host or cells: T47D
# Conditions: degradation of ER protein, T47D cells, drug treatment for 16 hours, Western blot gray values vs DMSO control; read-out: DC50 (nM)/T47Dcell line
# Protocol: T47D cells were cultured in an incubator with 5% CO2 at 37° C. Complete medium was RPMI1640 supplemented with 10% Foetal bovine serum (FBS), 100 U/ml Penicillin and Streptomycin, and 0.77 μg/mL recombinant human insulin. Western blotting analysis of T47D cell line: • Cells were plated in a 24-well plate at a cell seeding […] of 1.5×10^5 cells/mL, with 1 ml cell suspensions per well. • After 24 h the cells were adherent, and the cells in each well were treated with 1 μL a certain concentration of ER protein regulators of the present disclosure. […] Afterwards, the membranes were block by using the Blocking Buffer, and the antibody incubation and development were performed. (The above procedures were all based on the antibody product manual of the manufacturer) DC50 value (the drug concentration required for degrading proteins by 50%, abbreviated as DC50) reads method: comparing the gray values of the Western blotting bands for the drug treatment with the gray values of the Western blotting band for the DMSO control, and reading the drug concentration range corresponding to the gray value of the Western blotting bands for the drug treatment which is equal to half of the gray value of the Western blotting band for the DMSO control. DC50 value could also be calculated as follows: using software ImageJ to quantify the gray values of the Western blotting bands for the drug treatment, fitting the relationship curve between drug concentrations and gray values, and from the fitted curve, calculating the drug concentration corresponding to half of the gray value of the Western blotting band for the DMSO control.
row,Structure (SMILES),DC50
1,"Cc1ncsc1-c1ccc(CNC(=O)[C@@H]2C[C@@H](O)CN2C(=O)[C@@H](NC(=O)CCN2CCN(CCC(=O)NCCOc3ccc(C(=C(CCCl)c4ccccc4)c4ccc(O)cc4)cc3)CC2)C(C)(C)C)cc1 [SIAIS208107, (2S,4R)-1-((S)-2-(3-(4-(3-((2-(4-(4-chloro-1-(4-hydroxyphenyl)-2-phenylbut-1-en-1-yl)phenoxy)ethyl)amino)-3-oxopropyl)piperazin-1-yl)propanamido)-3,3-dimethylbutanoyl)-4-hydroxy-N-(4-(4-methylthiazol-5-yl)benzyl)pyrrolidine-2-carboxamide]",< 200 nM
2,"Cc1ncsc1-c1ccc(CNC(=O)[C@@H]2C[C@@H](O)CN2C(=O)[C@@H](NC(=O)CCc2ccc(CCC(=O)N(C)CCOc3ccc(/C(=C(/CCCl)c4ccccc4)c4ccccc4)cc3)cc2)C(C)(C)C)cc1 [SIAIS208125, (2S,4R)-1-((S)-2-(3-(4-(3-((2-(4-((Z)-4-chloro-1,2-diphenylbut-1-en-1-yl)phenoxy)ethyl)(methyl)amino)-3-oxopropyl)phenyl)propanamido)-3,3-dimethylbutanoyl)-4-hydroxy-N-(4-(4-methylthiazol-5-yl)benzyl)pyrrolidine-2-carboxamide]",< 200 nM
3,"Cc1ncsc1-c1ccc(CNC(=O)[C@@H]2C[C@@H](O)CN2C(=O)[C@@H](NC(=O)CCc2ccc(CCC(=O)NCCOc3ccc(C(=C(CCCl)c4ccccc4)c4ccc(O)cc4)cc3)cc2)C(C)(C)C)cc1 [SIAIS208127, (2S,4R)-1-((S)-2-(3-(4-(3-((2-(4-(4-chloro-1-(4-hydroxyphenyl)-2-phenylbut-1-en-1-yl)phenoxy)ethyl)amino)-3-oxopropyl)phenyl)propanamido)-3,3-dimethylbutanoyl)-4-hydroxy-N-(4-(4-methylthiazol-5-yl)benzyl)pyrrolidine-2-carboxamide]",< 100 nM
4,"CN(CCOc1ccc(/C(=C(/CCCl)c2ccccc2)c2ccccc2)cc1)C(=O)CCN1CCN(CCNc2cccc3c2C(=O)N(C2CCC(=O)NC2=O)C3=O)CC1 (stereo not drawn) [SIAIS208135, (Z)-N-(2-(4-(4-chloro-1,2-diphenylbut-1-en-1-yl)phenoxy)ethyl)-3-(4-(2-((2-(2,6-dioxopiperidin-3-yl)-1,3-dioxoisoindolin-4-yl)amino)ethyl)piperazin-1-yl)-N-methylpropanamide]",< 200 nM
5,"O=C(CCCCNc1cccc2c1C(=O)N(C1CCC(=O)NC1=O)C2=O)NCCOc1ccc(C(=C(CCCl)c2ccccc2)c2ccc(O)cc2)cc1 (stereo not drawn) [SIAIS208144, N-(2-(4-(4-chloro-1-(4-hydroxyphenyl)-2-phenylbut-1-en-1-yl)phenoxy)ethyl)-5-((2-(2,6-dioxopiperidin-3-yl)-1,3-dioxoisoindolin-4-yl)amino)pentanamide]",< 100 nM
6,"O=C(CCCCCCNc1cccc2c1C(=O)N(C1CCC(=O)NC1=O)C2=O)NCCOc1ccc(C(=C(CCCl)c2ccccc2)c2ccc(O)cc2)cc1 (stereo not drawn) [SIAIS208145, N-(2-(4-(4-chloro-1-(4-hydroxyphenyl)-2-phenylbut-1-en-1-yl)phenoxy)ethyl)-7-((2-(2,6-dioxopiperidin-3-yl)-1,3-dioxoisoindolin-4-yl)amino)heptanamide]",< 100 nM
7,"CCC(=C(c1ccc(O)cc1)c1ccc(OCCNC(=O)CCCCCCCC(=O)N[C@H](C(=O)N2C[C@H](O)C[C@H]2C(=O)NCc2ccc(-c3scnc3C)cc2)C(C)(C)C)cc1)c1ccc(O)cc1 [SIAIS208167, N1-(2-(4-(1,2-bis(4-hydroxyphenyl)but-1-en-1-yl)phenoxy)ethyl)-N9-((S)-1-((2S,4R)-4-hydroxy-2-((4-(4-methylthiazol-5-yl)benzyl)carbamoyl)pyrrolidin-1-yl)-3,3-dimethyl-1-oxobutan-2-yl)nonanediamide]",< 50 nM

# The next lines start with the values.
row,DC50,Structure (SMILES)
1,< 50 nM,"Cc1ncsc1-c1ccc(CNC(=O)[C@@H]2C[C@@H](O)CN2C(=O)[C@@H](NC(=O)CCOCCOCCOCCOCCOCCC(=O)N(C)CCOc2ccc(/C(=C(/CCCl)c3ccccc3)c3ccccc3)cc2)C(C)(C)C)cc1 [SIAIS180022, N1-(2-(4-((Z)-4-chloro-1,2-diphenylbut-1-en-1-yl)phenoxy)ethyl)-N19-((S)-1-((2S,4R)-4-hydroxy-2-((4-(4-methylthiazol-5-yl)benzyl)carbamoyl)pyrrolidin-1-yl)-3,3-dimethyl-1-oxobutan-2-yl)-N1-methyl-4,7,10,13,16-pentaoxanonadecanediamide]"
2,< 50 nM,"Cc1ncsc1-c1ccc(CNC(=O)[C@@H]2C[C@@H](O)CN2C(=O)[C@@H](NC(=O)CCOCCOCCC(=O)N(C)CCOc2ccc(/C(=C(/CCCl)c3ccccc3)c3ccccc3)cc2)C(C)(C)C)cc1 [SIAIS180023, (2S,4R)-1-((S)-2-(tert-butyl)-16-(4-((Z)-4-chloro-1,2-diphenylbut-1-en-1-yl)phenoxy)-14-methyl-4,13-dioxo-7,10-dioxa-3,14-diazahexadecanoyl)-4-hydroxy-N-(4-(4-methylthiazol-5-yl)benzyl)pyrrolidine-2-carboxamide]"
3,< 50 nM,"Cc1ncsc1-c1ccc(CNC(=O)[C@@H]2C[C@@H](O)CN2C(=O)[C@@H](NC(=O)CCOCCOCCOCCC(=O)N(C)CCOc2ccc(/C(=C(/CCCl)c3ccccc3)c3ccccc3)cc2)C(C)(C)C)cc1 [SIAIS180024, (2S,4R)-1-((S)-2-(tert-butyl)-19-(4-((Z)-4-chloro-1,2-diphenylbut-1-en-1-yl)phenoxy)-17-methyl-4,16-dioxo-7,10,13-trioxa-3,17-diazanonadecanoyl)-4-hydroxy-N-(4-(4-methylthiazol-5-yl)benzyl)pyrrolidine-2-carboxamide]"
4,< 50 nM,"Cc1ncsc1-c1ccc(CNC(=O)[C@@H]2C[C@@H](O)CN2C(=O)[C@@H](NC(=O)CCOCCOCCOCCOCCC(=O)N(C)CCOc2ccc(/C(=C(/CCCl)c3ccccc3)c3ccccc3)cc2)C(C)(C)C)cc1 [SIAIS180025, N1-(2-(4-((Z)-4-chloro-1,2-diphenylbut-1-en-1-yl)phenoxy)ethyl)-N16-((S)-1-((2S,4R)-4-hydroxy-2-((4-(4-methylthiazol-5-yl)benzyl)carbamoyl)pyrrolidin-1-yl)-3,3-dimethyl-1-oxobutan-2-yl)-N1-methyl-4,7,10,13-tetraoxahexadecanediamide]"
5,100 nM,"Cc1ncsc1-c1ccc(CNC(=O)[C@@H]2C[C@@H](O)CN2C(=O)[C@@H](NC(=O)CCCCCC(=O)N(C)CCOc2ccc(/C(=C(/CCCl)c3ccccc3)c3ccccc3)cc2)C(C)(C)C)cc1 [SIAIS180029, N1-(2-(4-((Z)-4-chloro-1,2-diphenylbut-1-en-1-yl)phenoxy)ethyl)-N7-((S)-1-((2S,4R)-4-hydroxy-2-((4-(4-methylthiazol-5-yl)benzyl)carbamoyl)pyrrolidin-1-yl)-3,3-dimethyl-1-oxobutan-2-yl)-N1-methylheptanediamide]"
6,< 50 nM,"Cc1ncsc1-c1ccc(CNC(=O)[C@@H]2C[C@@H](O)CN2C(=O)[C@@H](NC(=O)CCCCCCC(=O)N(C)CCOc2ccc(/C(=C(/CCCl)c3ccccc3)c3ccccc3)cc2)C(C)(C)C)cc1 [SIAIS180033, N1-(2-(4-((Z)-4-chloro-1,2-diphenylbut-1-en-1-yl)phenoxy)ethyl)-N8-((S)-1-((2S,4R)-4-hydroxy-2-((4-(4-methylthiazol-5-yl)benzyl)carbamoyl)pyrrolidin-1-yl)-3,3-dimethyl-1-oxobutan-2-yl)-N1-methyloctanediamide]"
7,< 200 nM,"Cc1ncsc1-c1ccc(CNC(=O)[C@@H]2C[C@@H](O)CN2C(=O)[C@@H](NC(=O)CCCCCCCC(=O)N(C)CCOc2ccc(/C(=C(/CCCl)c3ccccc3)c3ccccc3)cc2)C(C)(C)C)cc1 [SIAIS180035, N1-(2-(4-((Z)-4-chloro-1,2-diphenylbut-1-en-1-yl)phenoxy)ethyl)-N9-((S)-1-((2S,4R)-4-hydroxy-2-((4-(4-methylthiazol-5-yl)benzyl)carbamoyl)pyrrolidin-1-yl)-3,3-dimethyl-1-oxobutan-2-yl)-N1-methylnonanediamide]"
8,< 200 nM,"Cc1ncsc1-c1ccc(CNC(=O)[C@@H]2C[C@@H](O)CN2C(=O)[C@@H](NC(=O)CCCCCCCCC(=O)N(C)CCOc2ccc(/C(=C(/CCCl)c3ccccc3)c3ccccc3)cc2)C(C)(C)C)cc1 [SIAIS180036, N1-(2-(4-((Z)-4-chloro-1,2-diphenylbut-1-en-1-yl)phenoxy)ethyl)-N10-((S)-1-((2S,4R)-4-hydroxy-2-((4-(4-methylthiazol-5-yl)benzyl)carbamoyl)pyrrolidin-1-yl)-3,3-dimethyl-1-oxobutan-2-yl)-N1-methyldecanediamide]"
